In patent US10233206B2, “D-fagomine for the control of inflammatory processes related to an overactivation of the humoral immune response” (priority 2013, dated 2019):
Several values for one entry are separate records, joined by “and”; a condition that tells them apart may be missing. Identical values can stand only once. Entries after “also recorded” stand apart in the source; their conditions may differ.

What was measured:
[1] = test system: bacteria; conditions: WO2011117362; cited from earlier work
[2] = test system: bacteria; conditions: Gomez L. et al.; Castillo J. A. et al.; cited from earlier work
[3] = test system: TNF-α; assay: TNF-α release into the supernatant of human colon mucosa organ culture with E. coli (ELISA); type: cell-based; conditions: for TNF-alfa (1.5 ml standarized 30 mg) / TNF-alfa/ml: individual samples, listed as Fag; for TNF-alfa (1.5 ml standarized 30 mg, Average): mean of 2 samples; for TNF-alfa/ml: supernatant after 4 h
Procedure: (§1) The aim of this investigation was to determine the effects “ex vivo” of D-fagomine on the adhesion of E. coli to human colon mucosal samples and their possible influence on the release of inflammatory mediators on a range of doses as an indication of the activation of the innate immune response.
(§2) The approach, included the incubation of an E. coli strain with mucosal colonic samples obtained by surgery. The intention was to preserve the whole structure of mucosal samples including multiple cell populations such as epithelial cells and immunocompetent cells (macrophages, dendritic cells, plasma cells and lymphocytes), all of them keeping their original structure and disposition for cell to cell interaction. In other words, the approach was intended for mimicking the “in vivo” conditions of the colon mucosa.
(§3) Samples of macroscopically normal colonic mucosa were obtained at surgery from patients undergoing colectomy for colonic cancer. Areas free of disease were collected in ice-cold saline and transferred immediately to the Laboratory of the Digestive Research Unit of Hospital's Vail d'Hebron (Barcelona). After washing with saline, the mucosa was dissected from the muscularis layer and pieces between 25 and 30 mg were placed surface up in culture wells (15 mm diameter wells with 500 μm bottom mesh, Netwell culture systems, Costar, Cambridge, Mass.), and orientated so that the epithelial surface was upper-most. Filters were suspended over wells containing 1.5 ml of RPMI edium (CanSera, Rexdale, Ontario, Canada) supplemented with 10% foetal calf serum (FCS; Gibco-BRL, Eggenstein, Germany), glutamine 2 mM and antibiotics: 100 U/ml penicillin, 100 microg/ml streptomycin and 50 microg/ml gentamycin, (all from Normon, Madrid, Spain). This volume is just for maintaining the humidity of the surface but not for sinking beneath the surface.
(§4) Biopsies were incubated at 37° C. in a 95% O2+5% CO2 atmosphere and stimulated during 1 h with PMA (phorbol-12-myristate-13-acetate) and lonomycin (100/1000 ng/mL), both available from Sigma.
(§5) Thereafter, medium was replaced by fresh RPMI 1640 medium (without glucose) supplemented with 10% FCS and sodium bicarbonate at 24 mmol/L.
(§6) Bacteria strain E. coli ([…]) and fagomine (50, 500 and 5000 μg/mL) were added carefully to the explants. After 4 h of culture of tissues with E. coli, supernatants were collected for measurement of E. coli recovery, release of TNF-α, LDH (viability) and pH. Moreover, the tissues were rinsed, homogenized and assayed for E. coli recovery and LDH (to study tissue viability).
Concentration of TNF-α in the supernatants was measured using a commercially available ELISA assay system for human citoquine TNF-α (Ready to Set, e-Bioscience). Cytokine concentration is expressed as pg (TNF-α) per 30 mg of tissue.

[4] = Gomez L. et al. Br. J. Nutr. 2012; cited from earlier work
[5] = test system: colon tissue; assay: Colon viability (LDH release); type: cell-based, human
Procedure: as §3, §6
To estimate tissue viability, we calculated LDH (lactate-dehydrogenase) activity release in the supernatant. This method was validated by Finnie (Gut 1995). The ratio of LDH activity in the supernatant over total LDH activity in tissue homogenates was calculated and used to estimate the percentage of viable tissue. Tissue samples were homogenized in Tris/HCl (100 mmol/L, pH 7.4) and supernatants were analysed for LDH using the spectrophotometric method. Tissue viability was assessed as the release of LDH per mg of tissue.

[6] = test system: E. coli 434; assay: Recovery of E. coli in tissue: ex vivo adhesion of E. coli to human colon mucosal samples (organ culture); type: cell-based; conditions: for E coli × 10 6 Recovery on tissue: 4 h culture with E. coli, individual samples 1 and 2; for E coli × 10 6 Standarized 30 mg, Average: mean of 2 samples; for E coli × 10 6 Standarized 30 mg: normalized to 30 mg tissue, individual samples; for E. coli recovery in tissue, Average % over control: control Ec = 100.0%
Procedure: as §1, §2
In the design of the study doses of 0, 50, 500 and 5000 μg/ml of D-fagomine were tested.
Pathogenic strains of E coli were used. The main differences of pathogenic strains of E coli vs. other non pathogenic are related to their capacity to avoid the immune system.
as §3, §4, §5, §6
The pathogenic E. coli reference strain (CECT 434, (Migula 1895) Castellani and Chalmers 1919) was provided by Dr. Maria Angeles Calvo (Microbiology Laboratory, Faculty of Veterinary, Autonomous University of Barcelona, Spain)
The day before of the experiment with tissue, the E. coli strain was inoculated in Luria Bertani broth (Pharmacy, Hospital Vail d'Hebron, Autonomous University of Barcelona, Spain) at 37° C. under aerobic conditions for 24 h. The day of the experiment bacteria were harvested in the stationary phase, cell counts in the bacterial suspension were estimated by optical density at 600 nm absorbance, and bacteria were added to the tissue-culture wells at the appropriate dilution.
In order to quantify only the adherent E. coli bacteria, at the end of the culture, tissues were recovered and rinsed with 2 ml of saline in an orbital mixer at low speed during 2 minutes. After rinsing, each tissue was homogenized in 1 ml of saline and dilutions were prepared to quantify the recovery of E. coli in solid agar selective media. […]

[7] = Kim H. et al. 2005; cited from earlier work
[8] = D-fagomine 50 μg/ml with E. coli
[9] = D-fagomine 500 μg/ml with E. coli
[10] = D-fagomine 5000 μg/ml with E. coli
[11] = D-fagomine 50 μg/ml, listed as Fag
[12] = D-fagomine 500 μg/ml, listed as Fag

In the case of `OC[C@H]1NCC[C@@H](O)[C@@H]1O` (stereo in doubt) [D-fagomine, (2R, 3R, 4R)-2-hydroxymethylpiperidine-3,4-diol], the “Bacterial adherence to mucosal surface (in words)” value [1] is given as “inhibiting bacterial adherence to mucosal surface”, the “Antimicrobial activity (in words)” value [2] is given as “do not show antimicrobial activity” and the “TNF-alfa release at 50 μg/mL, times higher than at 500 μg/mL” value ([3]; 50 μg/mL versus 500 μg/mL) is given as 5 times. For the same compound, the “TNF-alfa release at 50 μg/mL, times higher than at 5000 μg/mL” value ([3]; 50 μg/mL versus 5000 μg/mL) was roughly 8 times, the “Stimulation of TNF-alfa release (in words)” value ([3]; 50, 500 and 5000 μg/ml with E. coli) was “capacity to stimulate the release of TNF-alfa and that the lower is the dose the more potent is such release; also recorded: stimulating the release of TNF-alfa either with respect to the control with E. coli or with respect to the control without E. coli” and the “TNF-alfa (1.5 ml standarized 30 mg)” value [3, 8] was 145.4 pg (TNF-α) per 30 mg of tissue and 164.2 pg (TNF-α) per 30 mg of tissue. The “TNF-alfa (1.5 ml standarized 30 mg, Average)” value [3, 8] was 154.8 pg (TNF-α) per 30 mg of tissue, the TNF-alfa/ml [3, 8] was 106.2 mL⁻¹ and 98.8 mL⁻¹ and the “TNF-alfa (1.5 ml standarized 30 mg)” value [3, 9] was 31.9 pg (TNF-α) per 30 mg of tissue and 28.6 pg (TNF-α) per 30 mg of tissue. For the same compound, the “TNF-alfa (1.5 ml standarized 30 mg, Average)” value [3, 9] was 30.3 pg (TNF-α) per 30 mg of tissue, the TNF-alfa/ml [3, 9] was 20.7 mL⁻¹ and 18.6 mL⁻¹ and the “TNF-alfa (1.5 ml standarized 30 mg)” value [3, 10] was 8.2 pg (TNF-α) per 30 mg of tissue and 18.1 pg (TNF-α) per 30 mg of tissue. The “TNF-alfa (1.5 ml standarized 30 mg, Average)” value [3, 10] was 13.2 pg (TNF-α) per 30 mg of tissue, the TNF-alfa/ml [3, 10] was 13.8 mL⁻¹ and 5.7 mL⁻¹ and the “Postprandial blood glucose level and insulin secretion (in words)” value [4] was “decrease postprandrial blood glucose level without stimulating insulin secretion”. For the same compound, the “Viability LDH” value ([5]; E. coli + D-fagomine 50 μg/ml) was 88.20%, the “Viability LDH” value ([5]; E. coli + D-fagomine 500 μg/ml) was 91.47% and the “Viability LDH” value ([5]; E. coli + D-fagomine 5000 μg/ml) was 83.88%. For the same compound, the “Effect on viability of the tissue (in words)” value ([5]; coculture with E. coli or fagomine) was “does not affect the viability of the tissue”, the “Antiadherent effect against E. coli on colon mucosa (in words)” value ([6]; 50, 500 and 5000 μg/ml) was “antiadherent properties against E. coli in a dose dependent manner; also recorded: antiadherent effect against E. coli on the colon epithelium” and the “E coli × 10 6 Recovery on tissue” value [6, 11] was 4 × 10 6 and 4.4 × 10 6. For the same compound, the “E coli × 10 6 Standarized 30 mg, Average” value ([6]; D-fagomine 50 μg/ml) was 4.22 × 10 6, the “E coli × 10 6 Standarized 30 mg” value [6, 11] was 4.12 × 10 6 and 4.31 × 10 6 and the “E. coli recovery in tissue, Average % over control” value ([6]; D-fagomine 50 μg/ml) was 56.6%. The “E coli × 10 6 Recovery on tissue” value [6, 12] was 2.4 × 10 6 and 0.8 × 10 6, the “E coli × 10 6 Standarized 30 mg, Average” value ([6]; D-fagomine 500 μg/ml) was 1.56 × 10 6 and the “E coli × 10 6 Standarized 30 mg” value [6, 12] was 2.21 × 10 6 and 0.9 × 10 6. The “E. coli recovery in tissue, Average % over control” value ([6]; D-fagomine 500 μg/ml) was 21.0%, the “E coli × 10 6 Recovery on tissue” value ([6]; D-fagomine 5000 μg/ml) was 1.6 × 10 6 and the “E coli × 10 6 Standarized 30 mg, Average” value ([6]; D-fagomine 5000 μg/ml) was 1.47 × 10 6. The “E coli × 10 6 Standarized 30 mg” value ([6]; D-fagomine 5000 μg/ml, listed as Fag) was 1.4 × 10 6 and 1.55 × 10 6 and the “E. coli recovery in tissue, Average % over control” value ([6]; D-fagomine 50 or 5000 μg/ml) was 19.8%.

For `C[C@@H]1O[C@@H](OC[C@H]2O[C@@H](Oc3c(-c4ccc(O)c(O)c4)oc4cc(O)cc(O)c4c3=O)[C@H](O)[C@@H](O)[C@@H]2O)[C@H](O)[C@H](O)[C@H]1O` [rutin], the “Stability and deglycosylation in the intestine after oral administration (in words)” value [7] is given as “stable in the upper intestine, but rapidly deglycosylated to liberate the quercetin at the level of the colon”.
